Measurements: US20060229335A1, “Diarylamine and arylheteroarylamine pyrazole derivatives as modulators of 5ht2a” (priority 2002, published 2006)

Biological target: non-endogenous, constitutively activated version of the human 5-HT2A receptor (human CART 5-HT2A) (Homo sapiens, UniProt P28223)
Test: Intracellular IP3 (inositol phosphate) accumulation assay, inverse agonist potency
Format: cell-based
Details: HEK293 cells transfected with mutated constitutively active 5-HT2A, averages of at least two trials, read-out: 5-HT2A (IC50) IP Accumulation Assay
Excerpt: It is well established that human 5-HT2A receptors coupled to the guanine nucleotide binding protein Gq. 5-HT2A-mediated activation of Gq results in activation of membrane associated phospholipase C which in turn catalyzes the hydrolysis of phosphatidylinositol species (PI, PIP, and PIP2) to form inositol phosphate species (IP, IP2, and IP3). The accumulation of inositol phosphate species can be measured and is often used to determine the functional potency of 5-HT2A agonists or antagonists. However, to evaluate compounds for potential inverse agonist activity, the 5-HT2A receptor must display constitutive activity. We have mutated the human 5-HT2A receptor so as to generate a non-endogenous, constitutively activated version of the 5-HT2A receptor, as disclosed in SEQ ID NO:30 (polynucleotide) and SEQ ID NO:31 (polypeptide) in U.S. Pat. No. 6,541,209 (the disclosure of which is hereby incorporated by reference in its entirety). Upon transfection of this mutated 5-HT2A into HEK293 cells, it was observed that there was a ligand-independent increase in basal inositol phosphate accumulation compared to untransfected cells. This ligand-independent insoitol phosphate accumulation is a trademark of constitutive activity. The following protocol was used to assess inverse agonist potency of compounds.
On day one, 13×10^6 HEK293 cells per 150 mm plate were plated out. On day two, 2 ml of serum OptimemI is added per plate followed by addition of 60 ul of lipofectamine and 16ug of cDNA. Note that lipofectamine must be added to the OptimemI and mixed well before addition of cDNA. While complexes between lipofectamine and the cDNA are forming, media is carefully aspirated and cells are gently rinsed with 5 ml of OptimemI media followed by careful aspiration. Then 12 ml of OptimemI is added to each plate and 2 ml of transfection solution is added followed by a 5 hour incubation at 37° C. in a 5% CO2 incubator. Plates are then carefully aspirated and 25 ml of Complete Media are added to each plate and cells are then incubated until used. On day 3, cells are trypsinized with 5 ml of 0.05% trypsin for 20-30 seconds followed by addition of 10 ml of warmed media, gently titurated to dissociate cells, and then 13 additional ml of warmed media is gently added. Cells are then counted and then 55,000 cells are added to 96-well sterile poly-D-lysine coated plates. Cells are allowed to attach over a six hour incubation at 37° C. in a 5% CO2 incubator. Media is then carefuilly aspirated and 100 ul of warm inositol-free media plus 0.5 μCi ^3H-inositol is added to each well and the plates are incubated for 18-20 hours at 37° C. in a 5% CO2 incubator.
On day 4, media is carefully aspirated and then 0.1 ml of assay medium is added containing inositol-free/serum free media, 10 μM pargyline, 10 mM lithium chloride, and test compound at indicated concentrations. The plates were then incubated for three hours at 37° C. and then wells are carefully aspirated. Then 200 ul of ice-cold 0.1M formic acid is added to each well. Plates can then be frozen at this point at −80° C. until further processed. Frozen plates are then thawed over the course of one hour, and the contents of the wells (approximately 220 ul) are placed over 400 ul of washed ion-exchange resin (AG 1-X8) contained in a Multi Screen Filtration plate and incubated for 10 minutes followed by filtration under vacuum pressure. Resin is then washed nine times with 200 ul of water and then [^3H]inositol phosphates are eluted into a collecting plate by the addition of 200 ul of 1M ammonium formate and an additional 5 minute incubation. The elutant is then transferred to 20 ml scintillation vials, 8 ml of SuperMix or Hi-Safe scintillation cocktails is added, and vials are counted for 0.5-1 minutes in a Wallac 1414 scintilation counter.
At each concentration, triplicate determinations were made. […]

| SMILES | IC50 [nM] |
| --- | --- |
| Cn1ncc(Cl)c1-c1cccc(Nc2ccc(OC(F)(F)F)cc2)c1 [Compound 8, [3-(4-Chloro-2-methyl-2H-pyrazol-3-yl)-phenyl]-(4-trifluoromethoxy-phenyl)-amine] | 44.6 |
| Cn1ncc(Br)c1-c1cccc(Nc2ccc(Cl)cc2)c1 [Compound 36, [3-(4-Bromo-2-methyl-2H-pyrazo1-3-yl)-phenyl]-(4-chloro-phenyl)-amine] | 7 |
| Cn1ncc(Br)c1-c1cccc(Nc2ccc(C(F)(F)F)cc2)c1 [Compound 44, [3-(4-Bromo-2-methyl-2H-pyrazol-3-yl)-phenyl]-(4-trifluoromethyl-phenyl)-amine] | 2.99 |
| Cn1ncc(Br)c1-c1cccc(Nc2ccc(S(C)(=O)=O)cc2)c1 [Compound 46, [3-(4-Bromo-2-methyl-2H-pyrazol-3-yl)-phenyl]-(4-methanesulfonyl-phenyl)-amine] | 113 |
| Cc1cc(Nc2cccc(-c3c(Br)cnn3C)c2)ccc1Cl [Compound 49, [3-(4-Bromo-2-methyl-2H-pyrazol-3-yl)-phenyl]-(3-methyl-4-chloro-phenyl)-amine] | 19 |
| Cn1ncc(Br)c1-c1cccc(Nc2nc3ccccc3o2)c1 [Compound 57, Benzoxazol-2-yl-[3-(4-bromo-2-methyl-2H-pyrazol-3-yl)-phenyl]-amine] | 10.6 |
| COc1ccc(Nc2ccc(Cl)cc2)cc1-c1c(Br)cnn1C [Compound 70, [3-(4-Bromo-2-methyl-2H-pyrazol-3-yl)-4-methoxy-phenyl)-(4-chloro-phenyl)-amine] | 1.77 |
